The term melting point denotes the temperature, or range, at which the solid turns liquid.

Take `CC(C)c1nn(-c2ccc(C(F)(F)F)cn2)cc1CCCOc1nn(C)cc1CCC(=O)O`: the melting point lay within 124 to 125 °C.

With `CC(=O)Nc1ccc(F)c(N2CCN(C(C)=O)CC2)n1`, the melting point fell in the range of 178 to 180 °C. `CC(=O)Nc1nc(-c2ccc(F)c3ccccc23)cc(C(C)C)n1` showed a melting point of 115 to 117 °C.

Consider `NC(=O)/C=C/c1cc2c(Oc3ccc(Cl)cc3)cncc2s1`, for which the melting point was in the range of 176 to 178 °C. Consider `CNC(=O)[C@@H]1CCCC[C@@H]1Nc1nc(Cl)ncc1Cl` (relative stereo), for which the melting point was 108 °C.

`Cc1ccc(S(=O)(=O)NN)cc1` showed a melting point of 110 °C. The compound `Nc1cc(S(N)(=O)=O)ccc1S(=O)(=O)CCCO` showed a melting point of 136 to 138 °C. `Cc1cccc(NC(=O)C2=C(O)c3ccccc3N(c3ccccc3)C2)n1` showed a melting point of 74 to 77 °C. The value for `CCNC(=O)c1cc(NS(=O)(=O)c2ccc(OC)cc2)ccc1Oc1cncc(Cl)c1` was 146 to 147 °C. As for `COC(=O)C1Oc2ccccc2C(C)c2ccccc2O1` (stereo not drawn), the melting point is 95 to 120 °C. In the case of `O=C(O)CCC1=C2C(=CC(Cl)=CC2(F)Cl)NC1C(=O)O` (stereo not drawn) it was 292 to 294 °C.

Consider `COC(=O)C1=C(C)NC(C)=C(C(=O)OCCN2CCCC2=O)C1c1cccc([N+](=O)[O-])c1` (stereo not drawn), for which the melting point was 112 to 114 °C. On to `CC1=Nc2cc(C)c(C)cc2C(=O)C1`, for which the melting point fell in the range of 120 to 122 °C. On to `CCCCOc1c(C(=O)O)n(CC2CC2)c(=O)c2ccc(Br)cc12`, for which the melting point was in the range of 166 to 167 °C. On to `Cc1ccc(C(=O)Nc2ccc(CN3CCOCC3)c(C(F)(F)F)c2)cc1-c1ccc2cnncc2c1`, for which the melting point is 147 to 151 °C. In turn, `CCCCCCCCCCCCCCCCC(NC(C)=O)(C(=O)OCC)C(=O)OCC` yielded a melting point of 65 to 67 °C. For the compound `C=CCN1C(=O)CN(c2ccc(Cc3ccccc3)cc2)C1=S`, the melting point is 132 °C. The compound `CC(C(N)=O)C(=O)Nc1ccc(OCc2cccc(F)c2)cc1` (stereo not drawn) registered a melting point of 206 °C. In the case of `CC1(C)C2CCC1(CS(=O)(=O)N1CCC3(C=Cc4ccccc43)CC1)C(O)(CC(=O)O)C2` (stereo not drawn) it was 138 to 140 °C; in that of `CC1(Cc2ccc(Cl)c(Cl)c2)OC(=O)N(Cc2cc(C(F)(F)F)cc(C(F)(F)F)c2)C1=O` (stereo not drawn), 80 to 82 °C. The value for `CCCCn1nc(C(F)F)nc1Cc1ccc(-c2ccccc2-c2nnn[nH]2)nc1` was 172 to 174 °C. `CC(N=C(O)C(Cl)=C(Cl)C(=O)O)c1ccccc1` (stereo not drawn) had a melting point of 62 to 65 °C. `CN1NC(c2ccccc2Cl)=NN=C1c1ccccc1Cl` displayed a melting point of 115 to 116 °C. In the case of `CC1Cc2cc3c(cc2C(c2ccc(N)cc2)=NN1)OCO3` (stereo not drawn) it was 118 to 120 °C; in that of `C=Cn1cc(C(=O)O)c(=O)c2cc(F)c(-c3ccncc3)nc21`, 254 to 257 °C. Consider `CCN1CCN(CC(=O)NC2(c3cc4ccccc4o3)C(=O)Nc3cc(Cl)cc(Cl)c32)CC1` (single isomer, unassigned; (+)), for which the melting point fell in the range of 192 to 196 °C.

For `CC(=O)Oc1cc(N(C)C2CCCCC2)c2ccccc2c1OC(C)=O`, the melting point is 103 to 105 °C. With `COc1ccc(S(=O)(=O)N(Cc2nnnn2C)c2ccc(Cl)cc2Cc2c(F)cccc2F)cc1OC`, the melting point came out at 136 °C. `O=S(=O)(NCCCCOc1ccc(-n2ccnc2)cc1)c1ccc2ccccc2c1` yielded a melting point of 157 to 158 °C. The compound `CCCc1c(C(=O)C(C)C)c2ccc(CC(N)=O)cc2n1Cc1cc2c(cc1Cl)OCO2` registered a melting point of 136 to 138 °C.

With `CC(O)c1nsc2nc3ccccc3n12` (stereo not drawn), the melting point is 174 to 175 °C. In the case of `O=C(Nc1ccc(Cl)cn1)c1cc(Cl)ccc1NCC1CCN(C2CCSC2)CC1` (stereo not drawn) it was 178 to 181 °C; in that of `CC(C)c1ccc(NCc2ccc(Br)cc2)cc1`, 30 °C. The compound `COc1cn(-c2ccc(N3CCOCC3)cc2F)nc(-c2ccnn2-c2ccccc2)c1=O` showed a melting point of 226 to 228 °C. `CP(=O)(O)C[C@@H](O)CN` displayed a melting point of 221 to 222 °C.

Take `CCN(CC)CCOc1ccc(Nc2ncc3c(n2)N(c2ccccc2)C(=O)N(c2ccc(Cl)cc2Cl)C3)cc1`: the melting point was in the range of 106 to 108 °C. The value for `Oc1cc(Br)ccc1C12CC3CC(CC(C3)C1)C2` was 112 to 114 °C; that for `Nc1nc2c(ncn2COC(CO)COC(=O)C2(N)CC2)c(=O)[nH]1` (stereo not drawn) was over 300 °C; that for `CC1CCc2c(ccc(F)c2-n2ccnc2)N1` (stereo not drawn) was 162 to 164 °C. For the compound `COC(=O)C(I)C(O)c1ccccc1` (stereo not drawn), the melting point worked out at 56 °C. Turning to `CCOC(=O)C(c1ccc(N)cc1)N(C)C(C)C` (stereo not drawn), the melting point was 70 to 71 °C. The compound `O=C1c2ccccc2C(=O)N1CCCOc1cccc2c(N3CCCCC3)nccc12` showed a melting point of 146 to 147 °C. Consider `Nc1ccc2[nH]c3cc(-c4ccccc4Cl)c4c(c3c2c1)C(=O)NC4=O`, for which the melting point was in the range of 216 to 222 °C.

In the case of `CC(O)(c1ccc(OCc2ccc3ccccc3n2)cc1)c1ccc(OCc2ccc3ccccc3n2)cc1`, the melting point was 129 to 131 °C. In the case of `COC(=O)c1ccccc1NC(=O)Cl`, the melting point is 80 to 82 °C. `CCc1nc2c(-c3ccc(OC(F)(F)F)cc3Cl)ncnc2n1C(C1CC1)C1CC1` yielded a melting point of 119 to 120 °C.

For `CCCCCCCCOCCCCC(=O)O`, the melting point is under 30 °C. The value for `COc1nccnc1NS(=O)(=O)c1ccc(Cl)s1` was 119 to 120 °C; that for `O=C(Nc1ccccc1)c1ccc(F)c([N+](=O)[O-])c1` was 155 to 157 °C; that for `CC(C)C(=O)NCCO` was 54 to 57 °C. `COc1ccc(NC(=O)c2cc(OC)c(OC)c(OC)c2)cc1`: the melting point lay within 160 to 161 °C.

`CN(C)C1(c2ccccc2)CCC(CNCCc2c[nH]c3ccccc23)CC1` (stereo not drawn) showed a melting point of 78 to 83 °C. The compound `OC12CCCCOC1C(OCc1ccccc1)C(OCc1ccccc1)C(OCc1ccccc1)C2OCc1ccccc1` (stereo not drawn) displayed a melting point of 106 °C.

`CC(C)(C)c1csc(COc2cccc(C(=O)Nc3cc(CCCS(=O)(=O)c4ccc(Cl)cc4)ccc3OCC(N)=O)c2)n1`: the melting point fell in the range of 147 to 148 °C. In turn, `CCC(=O)C(CCCCCCOc1ccc(OCc2ccccc2)cc1)C(=O)CC` yielded a melting point of 82 to 84 °C.

Consider `COc1cc2c(c(Cl)c1Cl)SCC2=O`, for which the melting point is 178 to 180 °C. `COc1cc2c(C3=CCN(C[C@H](O)COc4cccc5[nH]ccc45)CC3)c[nH]c2cc1Cl` showed a melting point of 115 to 120 °C. `N#CCn1c2ccccc2c2nc3ccccc3nc21` had a melting point of 231 to 232 °C.

Turning to `ICCC12CC3CC(CC(C3)C1)C2`, the melting point lay in the range of 93 to 94 °C. Take `CCOC(=O)c1ccc(N2CCC(NCC(O)COc3cccc([N+](=O)[O-])c3N)CC2)nc1` (stereo not drawn): the melting point lay within 140 to 142 °C. In the case of `COc1cccc(NC(=O)NCC(=O)N2[C@@H](C(=O)OC(C)(C)C)CC[C@H]2c2ccccc2)c1` (racemic) it was 174 °C; in that of `COC(=O)C1=C(CCc2ccccc2)NC(CC(=O)N2CCN(C)CC2)=C(C(=O)OC)C1c1c(Cl)cccc1Cl` (stereo not drawn), 138 to 139 °C; in that of `O=C(NN=Cc1ccc(Cl)cc1)c1cccnc1`, 188 to 190 °C.

In the case of `CN1CCN(c2c(F)c(NCc3ccccc3)c3nc(CC(N)=O)n(C4CC4)c3c2F)CC1`, the melting point is 157 to 159 °C. Consider `Cc1cc(-c2ccc(C(F)(F)F)cc2)nc(-c2cccc(-c3cccc(S(=O)(=O)NC(C)(C)C)c3)n2)n1`, for which the melting point was over 250 °C. For the compound `CCCOc1cc(C)ccc1C1=NC(=O)C2=NC=NC2=N1`, the melting point lay within 323 to 325 °C. `Cn1cccc1C(=O)NCCN1CCC(Nc2nc3ccccc3n2Cc2ccc(CO)o2)CC1` showed a melting point of 182 °C. In the case of `Cc1c(SCCCSCc2ccc(Cl)s2)ccnc1CSc1ccncc1` it was 76 to 77 °C; in that of `CN(C)CCNC(=O)[C@H]1C[C@H](NC(=O)Cc2ccccc2)c2c(Cl)cc(Cl)cc2N1` (relative stereo), 158 to 159 °C; in that of `N#CCCNC(=O)c1n[nH]cc1NC(=O)c1ccoc1`, 250 to 252 °C. Compound `CC(C)(C)Nc1cc(N2CCNCC2)nc(N2CCCC2)n1` displayed a melting point of 140 to 145 °C. Compound `CN(C)C(=O)c1c([N+](=O)[O-])cccc1S(=O)(=O)N(C)CCO` registered a melting point of 107 °C. Compound `CC(=O)c1ccc(OCCCCCCCCCCOc2ccccc2)o1` registered a melting point of 74 to 77 °C. `Sc1nc(-c2ccccc2)c(-c2cccnc2)[nH]1` yielded a melting point of 317 to 323 °C. With `Nc1c2c(nc3ccccc13)CCCC2N1CCCC1` (stereo not drawn), the melting point lay within 201 to 203 °C.

The compound `Cc1ccc(C(F)(F)C(F)(F)c2ccc(Br)cc2)cc1` showed a melting point of 104 to 106 °C. Compound `O=C1CC(=Cc2c[nH]c3ccccc23)C(=O)O1` registered a melting point of 90 to 91 °C. As to `O=C(NCCN1CCCCC1)N1CCN(c2ccccc2)CC1`, the melting point was in the range of 64 to 67 °C. As for `O=C(Nc1ccc(OC(F)(F)F)cc1)NC1CCN(C(=O)Cc2ccccn2)CC1`, the melting point is 183 to 187 °C. In the case of `N#CC(c1ccccc1)c1cc(Oc2cc(Cl)cc(Cl)c2)c2c(=O)c3ccccc3sc2c1` (stereo not drawn) it was 145 to 155 °C; in that of `CN(C(=O)COc1nnc(C(F)(F)F)s1)c1ccccc1`, 54 °C; in that of `CCOP(OCC)c1ccccc1P(c1cccc2ccccc12)c1cccc2ccccc12`, 94 to 95 °C. For the compound `CCOc1ccc(C2(C(=O)O)CC2(C)C)cc1` (stereo not drawn), the melting point lay in the range of 104 to 105 °C.

`CCOC(=O)C1=C(C)NC(C(Nc2ccccc2C(=O)O)SCc2ccccc2)=C(C(=O)OCC)C1c1cccc([N+](=O)[O-])c1` (stereo not drawn) had a melting point of 105 to 107 °C. Take `O=[N+]([O-])c1ccc(Cl)c(CN2CCCCC2)c1Cl`: the melting point is 67 to 68 °C. As to `CCCc1c(OCCCOc2cccc3c2CCCC3)ccc2c1OC(CCC=O)(CCC=O)CC2=O`, the melting point fell in the range of 107 to 108 °C.

Compound `CCc1c(Nc2cc(C)cc(C)c2)nc(OC)nc1OC` displayed a melting point of 113 to 114 °C. Consider `CCOC1=CC2=CCC3C4CCC(=O)C4(C)CCC3C2(C)CC1` (stereo not drawn), for which the melting point was in the range of 146 to 149 °C.

The values above are taken from a melting point compilation (Tetko et al.; mined from patent text by program, amines drawn as free bases though some values may be those of a salt).
